The test system of test [1] is paddy grains. Description: Total protein content in paddy grains. The test is classed as in vivo. The settings on record: treatment applied with farmer practice (NPK).
In test [2] the test system is paddy grains. Description: Total phenol estimation in paddy grains. The test is classed as in vivo. The settings on record: treatment applied with farmer practice (NPK).

Take `C=C1C[C@]23C[C@@]1(O)CC[C@H]2[C@@]12C=C[C@H](O)[C@@](C)(C(=O)O1)[C@H]2[C@@H]3C(=O)O` [Gibberellic acid]: the “% of Protein (total protein content in paddy grains)” value (“% of Protein” below) in the test with paddy grains [1] was found to be 0.008%. Moreover, in the test with paddy grains [2], the “Total phenol Conc ppm in paddy grains” value is listed as 16.7 ppm.

Regarding `COc1ccc2[nH]cc(CCNC(C)=O)c2c1` [Melatonin], in the test with paddy grains [2], the “Total phenol Conc ppm in paddy grains” value was 17.9 ppm.

For the compound `CC1=CC(=O)CC(C)(C)[C@@]1(O)/C=C/C(C)=C\C(=O)O` [Abscisic acid], the “% of Protein” value in the test on paddy grains [1] stood at 0.008%. Also, the “Total phenol Conc ppm in paddy grains” value with paddy grains [2] is on record as 18.78 ppm.

Consider `O=CO.O=C[O-].[K+]` [Potassium diformate], for which the “% of Protein” value in the test on paddy grains [1] is recorded as 0.012%. The “Total phenol Conc ppm in paddy grains” value in the test with paddy grains [2] is given as 19.97 ppm.

Regarding `O=C[O-].[K+]` [Potassium formate], in the test on paddy grains [1], the “% of Protein” value is reported as 0.011%. For the same compound, the “Total phenol Conc ppm in paddy grains” value in the test on paddy grains [2] is listed as 19.88 ppm.

The record behind these values is patent US20240164378A1, “SYNERGISTIC PLANT GROWTH STIMULANT COMPOSITIONS OF POTASSIUM MONO/DI-FORMATE WITH CARBOXYLIC ACIDS” (FERTIS INDIA PVT. LTD., priority 2021, published 2024).
